The source made the active and inactive calls. The rule behind the calls is not given here.
Key:
NCI-H2228 [1] = test: Induction of apoptosis in EML4-ALK-positive human NCI-H2228 cells assessed as increase in apoptotic cells at 100 to 200 nM measured after 48 hrs by AO/EB staining based inverted fluorescence microscopic analysis; type: functional, cell-based; settings: dose 100-200 nM, DDE = dose-dependent effect
NCI-H460 = test: Antiproliferative activity against human NCI-H460 cells incubated for 72 hrs and measured by CCK-8 assay; type: functional, cell-based; settings: NCI-H460, 72 h
NCI-H2228 [2] = test: Inhibition of cell migration in EML4-ALK-positive human NCI-H2228 cells assessed as relative migration rate at 5 nM measured after 24 hrs by cell scratch assay (reference value: 21.4 %); type: functional; set-up: scale not given: the % may be the effect or the level left
[3] = biological target: Epidermal growth factor receptor (Homo sapiens, UniProt P00533); test: Inhibition of EGFR (unknown origin) incubated for 1 hr and measured by mobility shift assay
Sequence of Epidermal growth factor receptor (P00533 whole entry): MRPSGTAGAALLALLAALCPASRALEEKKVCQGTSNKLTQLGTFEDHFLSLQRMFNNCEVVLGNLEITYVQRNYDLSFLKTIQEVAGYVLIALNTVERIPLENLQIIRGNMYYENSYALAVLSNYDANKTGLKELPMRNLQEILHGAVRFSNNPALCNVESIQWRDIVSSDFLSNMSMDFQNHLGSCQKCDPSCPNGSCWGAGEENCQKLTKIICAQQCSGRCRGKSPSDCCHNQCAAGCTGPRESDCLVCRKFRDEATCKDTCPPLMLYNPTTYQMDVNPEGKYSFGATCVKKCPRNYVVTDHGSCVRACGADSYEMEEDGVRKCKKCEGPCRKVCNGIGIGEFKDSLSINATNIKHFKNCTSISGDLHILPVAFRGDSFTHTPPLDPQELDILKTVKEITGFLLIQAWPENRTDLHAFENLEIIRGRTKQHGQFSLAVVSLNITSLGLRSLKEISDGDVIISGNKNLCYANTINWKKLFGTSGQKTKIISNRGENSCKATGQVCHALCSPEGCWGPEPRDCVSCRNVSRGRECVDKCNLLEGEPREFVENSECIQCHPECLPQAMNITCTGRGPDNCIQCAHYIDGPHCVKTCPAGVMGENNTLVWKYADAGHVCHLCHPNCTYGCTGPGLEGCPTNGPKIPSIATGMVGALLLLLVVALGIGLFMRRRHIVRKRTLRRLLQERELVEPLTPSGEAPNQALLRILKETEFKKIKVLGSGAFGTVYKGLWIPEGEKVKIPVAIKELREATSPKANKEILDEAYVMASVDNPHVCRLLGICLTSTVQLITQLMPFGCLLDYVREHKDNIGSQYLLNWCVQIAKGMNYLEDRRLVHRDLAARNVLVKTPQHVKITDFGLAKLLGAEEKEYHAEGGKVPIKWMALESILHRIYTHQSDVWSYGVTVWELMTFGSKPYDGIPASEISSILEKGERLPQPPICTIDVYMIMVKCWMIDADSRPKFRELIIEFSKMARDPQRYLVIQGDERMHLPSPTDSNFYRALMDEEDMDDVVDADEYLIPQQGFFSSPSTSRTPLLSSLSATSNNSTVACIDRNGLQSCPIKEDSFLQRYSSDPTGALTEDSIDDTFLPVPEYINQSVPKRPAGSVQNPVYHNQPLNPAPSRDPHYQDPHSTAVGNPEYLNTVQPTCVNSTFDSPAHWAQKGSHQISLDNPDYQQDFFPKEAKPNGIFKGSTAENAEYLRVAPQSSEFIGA

[4] = Toxicity in female BALB/c nude mouse xenografted with EML4-ALK-positive human NCI-H2228 cells assessed as body weight loss at 25 to 50 mg/kg, IG administered every 2 days for 7 times; type: organism-based; settings: in vivo, po, 48 h, dose 25-50 mg/kg, time 2 day
PC-3 = test: Antiproliferative activity against human PC-3 cells incubated for 72 hrs and measured by CCK-8 assay; type: functional, cell-based; settings: PC-3, 72 h
NCI-H3122 = test: cells; settings: Homo sapiens, NCI-H3122, 72 h
Description: Antiproliferative activity against EML4-ALK-positive human NCI-H3122 cells incubated for 72 hrs and measured by CCK-8 assay

NCI-H2228 [5] = test: Induction of apoptosis in EML4-ALK-positive human NCI-H2228 cells assessed as increase in apoptotic cells at 100 to 200 nM measured after 48 hrs by Hoechst 33342 staining based assay; type: functional, cell-based; settings: dose 100-200 nM, DDE = dose-dependent effect
MCF7 = test: Antiproliferative activity against human MCF7 cells incubated for 72 hrs and measured by CCK-8 assay; type: functional, cell-based; settings: MCF7, 72 h
NCI-H2228 [6] = test: Cell cycle arrest in EML4-ALK-positive human NCI-H2228 cells assessed as cells accumulation at G0/G1 phase at 50 nM (reference value: 53.24%); type: functional
NCI-H2228 [7] = test: Induction of apoptosis in EML4-ALK-positive human NCI-H2228 cells assessed as apoptotic rate at 200 nM measured after 48 hrs by annexin V-FITC/propidium iodide staining based flow cytometry (reference value: 6.6%); type: functional
NCI-H2228 [8] = test: Cell cycle arrest in EML4-ALK-positive human NCI-H2228 cells assessed as cells accumulation at G2/M phase at 50 nM (reference value: 11.28%); type: functional
NCI-H2228 [9] = test: Cell cycle arrest in EML4-ALK-positive human NCI-H2228 cells assessed as cells accumulation at G0/G1 phase at 100 nM (reference value: 53.24%); type: functional
HCT-116 = test: Antiproliferative activity against human HCT-116 cells incubated for 72 hrs and measured by CCK-8 assay; type: functional, cell-based; settings: HCT-116, 72 h
[10] = Cytotoxicity against human HELF cells incubated for 72 hrs and measured by CCK-8 assay; type: toxicity, cell-based
NCI-H2228 [11] = test: Cell cycle arrest in EML4-ALK-positive human NCI-H2228 cells assessed as cells accumulation at S phase at 25 nM (reference value: 35.48%); type: functional
NCI-H1581 = test: Antiproliferative activity against human NCI-H1581 cells incubated for 72 hrs and measured by CCK-8 assay; type: functional, cell-based; settings: NCI-H1581, 72 h
NCI-H2228 [12] = test: Inhibition of cell migration in EML4-ALK-positive human NCI-H2228 cells assessed as relative migration rate at 5 nM measured after 48 hrs by cell scratch assay (reference value: 35.99 %); type: functional; set-up: scale not given: the % may be the effect or the level left
A549 = test: cells; settings: Homo sapiens, A549, 72 h
Description: Antiproliferative activity against EGFR-positive human A549 cells incubated for 72 hrs and measured by CCK-8 assay

NCI-H2228 [13] = test: Cell cycle arrest in EML4-ALK-positive human NCI-H2228 cells assessed as cells accumulation at S phase at 100 nM (reference value: 35.48%); type: functional
NCI-H2228 [14] = test: Cell cycle arrest in EML4-ALK-positive human NCI-H2228 cells assessed as cells accumulation at G2/M phase at 25 nM (reference value: 11.28%); type: functional
NCI-H2228 [15] = test: Cell cycle arrest in EML4-ALK-positive human NCI-H2228 cells assessed as cells accumulation at S phase at 50 nM (reference value: 35.48%); type: functional
NCI-H2228 [16] = test: Inhibition of cell migration in EML4-ALK-positive human NCI-H2228 cells assessed as relative migration rate at 10 nM measured after 24 hrs by cell scratch assay (reference value: 21.4 %); type: functional; set-up: scale not given: the % may be the effect or the level left
[17] = Metabolic stability in Sprague-Dawley rat liver microsomes assessed as compound remaining at 10 uM preincubated for 5 mins and measured upto 60 mins by HPLC analysis; type: ADME, Microsome; settings: read-out: Stability
[18] = biological target: ALK tyrosine kinase receptor (Homo sapiens, UniProt Q9UM73, G1202R); test: Inhibition of ALK G1202R mutant (unknown origin) incubated for 1 hr and measured by mobility shift assay
Sequence of ALK tyrosine kinase receptor (Homo sapiens, UniProt Q9UM73, G1202R) (Q9UM73 19-1620 G1202R limits assumed): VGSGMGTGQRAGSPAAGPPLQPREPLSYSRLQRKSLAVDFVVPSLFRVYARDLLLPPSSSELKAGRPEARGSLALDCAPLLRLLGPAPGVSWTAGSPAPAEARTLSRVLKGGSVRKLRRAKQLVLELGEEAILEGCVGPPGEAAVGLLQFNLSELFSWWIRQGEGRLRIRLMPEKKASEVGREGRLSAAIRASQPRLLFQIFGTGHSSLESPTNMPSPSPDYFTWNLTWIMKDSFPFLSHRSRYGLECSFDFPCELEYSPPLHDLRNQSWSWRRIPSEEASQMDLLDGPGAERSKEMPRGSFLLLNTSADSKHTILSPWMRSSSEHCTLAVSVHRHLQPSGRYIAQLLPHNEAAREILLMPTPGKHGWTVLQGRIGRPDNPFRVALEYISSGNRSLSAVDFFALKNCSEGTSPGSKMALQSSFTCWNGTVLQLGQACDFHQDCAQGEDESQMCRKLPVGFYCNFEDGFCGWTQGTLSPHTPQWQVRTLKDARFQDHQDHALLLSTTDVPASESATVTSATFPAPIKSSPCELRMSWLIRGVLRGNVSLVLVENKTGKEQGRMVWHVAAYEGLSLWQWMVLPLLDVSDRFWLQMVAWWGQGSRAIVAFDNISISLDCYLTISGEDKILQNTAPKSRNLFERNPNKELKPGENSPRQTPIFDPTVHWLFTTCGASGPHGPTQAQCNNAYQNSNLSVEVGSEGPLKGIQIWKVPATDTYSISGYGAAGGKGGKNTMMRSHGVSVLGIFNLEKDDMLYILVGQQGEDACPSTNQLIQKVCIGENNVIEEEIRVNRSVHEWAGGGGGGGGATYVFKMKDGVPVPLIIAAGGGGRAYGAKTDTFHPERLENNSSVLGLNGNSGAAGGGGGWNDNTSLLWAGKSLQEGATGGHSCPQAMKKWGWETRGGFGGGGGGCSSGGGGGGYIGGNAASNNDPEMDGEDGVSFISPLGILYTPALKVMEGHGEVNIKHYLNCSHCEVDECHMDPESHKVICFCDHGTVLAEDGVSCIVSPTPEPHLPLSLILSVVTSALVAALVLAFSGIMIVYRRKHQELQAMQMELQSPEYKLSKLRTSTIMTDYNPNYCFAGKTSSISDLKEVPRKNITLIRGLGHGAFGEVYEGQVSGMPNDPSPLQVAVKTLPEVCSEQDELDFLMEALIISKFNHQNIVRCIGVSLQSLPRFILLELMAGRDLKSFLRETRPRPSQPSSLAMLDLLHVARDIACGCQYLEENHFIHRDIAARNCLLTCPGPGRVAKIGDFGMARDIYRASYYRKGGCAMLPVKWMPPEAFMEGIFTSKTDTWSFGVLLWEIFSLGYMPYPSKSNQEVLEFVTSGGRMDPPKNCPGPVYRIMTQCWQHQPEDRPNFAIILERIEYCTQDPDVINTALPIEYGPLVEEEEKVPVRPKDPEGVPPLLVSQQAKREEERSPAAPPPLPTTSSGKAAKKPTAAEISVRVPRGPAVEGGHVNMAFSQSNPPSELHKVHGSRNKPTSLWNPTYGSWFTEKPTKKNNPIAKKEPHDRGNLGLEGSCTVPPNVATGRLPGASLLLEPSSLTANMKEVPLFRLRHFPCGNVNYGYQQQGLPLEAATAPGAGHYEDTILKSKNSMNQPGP

[19] = biological target: ALK tyrosine kinase receptor (Homo sapiens, UniProt Q9UM73, L1196M); test: Inhibition of ALK L1196M mutant (unknown origin) incubated for 1 hr and measured by mobility shift assay
Sequence of ALK tyrosine kinase receptor (Homo sapiens, UniProt Q9UM73, L1196M) (Q9UM73 19-1620 L1196M limits assumed): as the sequence (Q9UM73 19-1620 G1202R limits assumed) above, with L1178M, R1184G counted along it

NCI-H2228 [20] = test: cells; settings: Homo sapiens, NCI-H2228, 72 h
Description: Antiproliferative activity against EML4-ALK-positive human NCI-H2228 cells incubated for 72 hrs and measured by CCK-8 assay

NCI-H2228 [21] = test: Cell cycle arrest in EML4-ALK-positive human NCI-H2228 cells assessed as cells accumulation at G2/M phase at 100 nM (reference value: 11.28%); type: functional
[22] = Metabolic stability in Sprague-Dawley rat liver microsomes assessed as half life at 10 uM preincubated for 5 mins followed by NADPH addition and measured upto 60 mins by HPLC analysis; type: ADME, Microsome
NCI-H2228 [23] = test: Induction of apoptosis in EML4-ALK-positive human NCI-H2228 cells assessed as apoptotic rate at 100 nM measured after 48 hrs by annexin V-FITC/propidium iodide staining based flow cytometry (reference value: 6.6%); type: functional
KARPAS-299 = test: cells; settings: Homo sapiens, KARPAS-299, 72 h
Description: Antiproliferative activity against NPM-ALK-positive human KARPAS-299 cells incubated for 72 hrs and measured by CCK-8 assay

[24] = biological target: ALK tyrosine kinase receptor (Homo sapiens, UniProt Q9UM73); test: Inhibition of ALK (unknown origin) incubated for 1 hr and measured by mobility shift assay
Sequence of ALK tyrosine kinase receptor (Homo sapiens, UniProt Q9UM73) (Q9UM73 whole entry): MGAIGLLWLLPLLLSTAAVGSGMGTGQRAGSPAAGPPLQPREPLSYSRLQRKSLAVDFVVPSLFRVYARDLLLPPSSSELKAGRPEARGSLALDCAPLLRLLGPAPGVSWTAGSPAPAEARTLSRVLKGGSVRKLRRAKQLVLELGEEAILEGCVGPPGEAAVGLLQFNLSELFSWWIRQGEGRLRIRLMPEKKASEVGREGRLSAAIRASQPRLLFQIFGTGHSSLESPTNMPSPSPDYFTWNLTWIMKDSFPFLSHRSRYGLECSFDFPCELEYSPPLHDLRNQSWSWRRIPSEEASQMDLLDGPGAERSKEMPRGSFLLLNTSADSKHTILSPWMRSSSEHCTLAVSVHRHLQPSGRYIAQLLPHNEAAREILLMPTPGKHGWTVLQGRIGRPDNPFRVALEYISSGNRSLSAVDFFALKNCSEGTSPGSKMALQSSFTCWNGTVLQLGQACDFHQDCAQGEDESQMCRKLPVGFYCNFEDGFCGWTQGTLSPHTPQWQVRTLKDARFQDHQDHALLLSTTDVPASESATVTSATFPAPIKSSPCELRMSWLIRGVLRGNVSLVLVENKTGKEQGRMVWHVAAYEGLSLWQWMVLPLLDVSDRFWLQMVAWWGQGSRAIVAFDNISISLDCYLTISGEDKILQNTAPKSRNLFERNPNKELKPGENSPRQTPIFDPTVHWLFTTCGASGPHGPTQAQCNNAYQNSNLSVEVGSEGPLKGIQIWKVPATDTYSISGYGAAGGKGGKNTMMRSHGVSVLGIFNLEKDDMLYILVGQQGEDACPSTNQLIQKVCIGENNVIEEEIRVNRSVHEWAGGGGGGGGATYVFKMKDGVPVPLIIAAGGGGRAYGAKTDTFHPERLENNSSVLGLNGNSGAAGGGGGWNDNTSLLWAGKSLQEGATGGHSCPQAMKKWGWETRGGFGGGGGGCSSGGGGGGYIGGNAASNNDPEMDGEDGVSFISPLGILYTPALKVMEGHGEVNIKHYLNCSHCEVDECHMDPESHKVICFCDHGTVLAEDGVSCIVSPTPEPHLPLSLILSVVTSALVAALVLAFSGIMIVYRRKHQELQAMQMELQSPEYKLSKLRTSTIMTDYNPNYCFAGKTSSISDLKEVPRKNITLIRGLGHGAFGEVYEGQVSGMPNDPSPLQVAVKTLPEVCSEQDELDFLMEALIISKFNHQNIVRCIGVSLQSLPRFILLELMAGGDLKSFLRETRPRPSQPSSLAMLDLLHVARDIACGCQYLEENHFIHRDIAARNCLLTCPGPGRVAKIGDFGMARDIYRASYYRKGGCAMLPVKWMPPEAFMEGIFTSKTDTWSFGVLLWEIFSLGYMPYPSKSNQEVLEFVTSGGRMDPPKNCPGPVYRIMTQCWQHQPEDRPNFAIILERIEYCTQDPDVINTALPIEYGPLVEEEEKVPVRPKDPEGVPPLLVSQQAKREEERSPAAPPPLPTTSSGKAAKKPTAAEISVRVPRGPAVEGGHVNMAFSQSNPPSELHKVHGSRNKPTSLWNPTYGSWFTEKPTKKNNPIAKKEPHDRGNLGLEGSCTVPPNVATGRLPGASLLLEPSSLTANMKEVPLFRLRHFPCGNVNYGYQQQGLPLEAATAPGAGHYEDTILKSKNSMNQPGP

[25] = Metabolic stability in Sprague-Dawley rat liver microsomes assessed as compound remaining at 10 uM preincubated for 5 mins followed by NADPH addition and measured upto 60 mins by HPLC analysis; type: ADME, Microsome; settings: read-out: Stability
NCI-H2228 [26] = test: Inhibition of cell migration in EML4-ALK-positive human NCI-H2228 cells assessed as relative migration rate at 10 nM measured after 48 hrs by cell scratch assay (reference value: 35.99 %); type: functional; set-up: scale not given: the % may be the effect or the level left
[27] = Intrinsic clearance in Sprague-Dawley rat liver at 10 uM preincubated for 5 mins followed by NADPH addition and measured upto 60 mins by HPLC analysis; type: ADME, tissue-based; settings: read-out: CLH
NCI-H2228 [28] = test: Antiproliferative activity against EML4-ALK-positive human NCI-H2228 cells incubated for 3 days at 25 to 100 nM and assessed as decrease in number of colonies by colony formation assay; type: functional, cell-based; settings: dose 25-100 nM, time 3.0 day
NCI-H2228 [29] = test: Cell cycle arrest in EML4-ALK-positive human NCI-H2228 cells assessed as cells accumulation at G0/G1 phase at 25 nM (reference value: 53.24%); type: functional
[30] = Intrinsic clearance in Sprague-Dawley rat liver microsomes at 10 uM preincubated for 5 mins followed by NADPH addition and measured upto 60 mins by HPLC analysis; type: ADME, Microsome; settings: read-out: CLH
NCI-H2228 [31] = test: Antitumor activity against EML4-ALK-positive human NCI-H2228 cells xenografted in female BALB/c nude mouse assessed as tumor growth inhibition at 50 mg/kg, IG administered every 2 days for 7 times; type: functional; settings: NCI-H2228, po, 48 h, time 2 day, read-out: TGI

IC50 (NCI-H460): 8.21 µM | IC50 [3]: > 1 µM | IC50 (PC-3): 1.23 µM | IC50 (NCI-H3122): 0.012 µM | IC50 (MCF7): 2.22 µM | IC50 (HCT-116): 1.56 µM | IC50 (NCI-H1581): 1.87 µM | IC50 (A549): 1.33 µM | remaining at 1 h, 10 µM [17]: 86.2% | IC50 [18]: 0.0013 µM | IC50 [19]: 0.00071 µM | IC50 (NCI-H2228 [20]): 0.017 µM | half-life at 10 µM [22]: 16.3 min | IC50 (KARPAS-299): 0.015 µM | IC50 [24]: 0.0016 µM | remaining at 1 h, 10 µM [25]: 7.5% | CLint scaled at 10 µM [27]: 153 mL/min/kg | microsomal CLint at 10 µM [30]: 84.9 µL/min/mg
Structure (SMILES): CC(C)S(=O)(=O)c1ccccc1Nc1nc(Nc2ccc3c(NC(=O)CN4CCCC4)n[nH]c3c2)ncc1Cl
Activity (NCI-H2228 [1]): Dde | Activity (NCI-H2228 [2]): 7.3% | Activity [4]: Non-Toxic | Activity (NCI-H2228 [5]): Dde | Activity (NCI-H2228 [6]): 31.29% | Activity (NCI-H2228 [7]): 23.28% | Activity (NCI-H2228 [8]): 61.31% | Activity (NCI-H2228 [9]): 26.77% | IC50 at 72 h [10]: > 20 µM | Activity (NCI-H2228 [11]): 9.4% | Activity (NCI-H2228 [12]): 17.02% | Activity (NCI-H2228 [13]): 0% | Activity (NCI-H2228 [14]): 45.5% | Activity (NCI-H2228 [15]): 7.4% | Activity (NCI-H2228 [16]): 2.31% | Activity (NCI-H2228 [21]): 73.23% | Activity (NCI-H2228 [23]): 18.83% | Activity (NCI-H2228 [26]): 5.01% | Activity (NCI-H2228 [28]): Active | Activity (NCI-H2228 [29]): 45.1% | inhibition in vivo at 50 mg/kg (NCI-H2228 [31]): 70.5%
